Measurements from patent US20060063209A1, “Engineered antibody fragment that irreversibly binds an antigen” (THE REGENTS OF THE UNIVERSITY OF CALIFORNIA, priority 2004, published 2006).
Entries after “also recorded” stand apart in the source; their conditions may differ.

Assays:
[1] = test system: Fab S95C; assay: Kinetics of covalent bond formation with Fab S95C; format: binding; details: 22° C., pH 7.4
Protocol: FIG. 7 (a) Phosphorimage of a representative SDS-PAGE assay of the extent of permanent attachment of ^111In-AABE to the light chain of Fab S95C. (b)Kinetics of formation of the covalent bond between bound ^111In-AABE and Fab S95C, at 22° C., pH 7.4.
We explored the rate of covalent attachment of the AABE-^111In chelate to the S95C mutant, by monitoring the extent of reaction as a function of time. The covalent attachment was 50% complete in approximately 10 min at 22° C. (FIG. 7).

[2] = test system: Fab S95C; assay: Covalent attachment of 111In-chelates to engineered Fab S95C (SDS-PAGE); format: binding; details: physiological pH and temperature, raw culture medium with 10% fetal calf serum
Protocol: FIG. 5 Conjugation of electrophilic ^111In-benzyl-EDTA derivatives with engineered Fab S95C. Phosphorimage of 10-20% SDS-PAGE gel of samples of complete culture media incubated with ^111In-labeled (A) CABE, (B) CpABE, (C) AABE, and (D) ABE. The radiolabeled light chains migrate near 25 Kd.
To investigate whether either the S95C or the N96C Fab would bind irreversibly to its target, ^111In-labeled chelates bearing electrophilic groups were incubated at physiological pH and temperature with raw tissue culture medium from the cells expressing these recombinant proteins. The culture medium contained 10% fetal calf serum, representative of typical biological media.
The samples were analyzed by denaturing gel electrophoresis (SDS-PAGE). Separation under reducing and denaturing conditions on SDS-PAGE separates the light chain from the heavy chain of each Fab, functionally destroying the antibody-binding pocket. Chelates bound to the Fab but not covalently linked will dissociate because the antibody-binding pocket is no longer folded. […] However, a chelate that not only bound to a Fab but also covalently linked will be attached to the Fab light chain and migrate with it on SDS-PAGE.

[3] = Whole-body clearance of indium-111 labeled electrophilic benzyl-EDTA derivatives; format: in vivo; details: indium-111 labeled chelate, BALB/c mice; for apparent half-life, whole-body clearance: after tail-vein injection
Protocol: FIG. 4 Whole-body clearance of indium-^111I labeled electrophilic derivatives of benzyl-EDTA from BALB/c mice after tail-vein injection. Here the objective was to find an electrophilic chelate that clears from the animal quickly when not captured by an engineered CHA255.
As reactive ligands, a small set of chelates bearing electrophilic para substituents (FIG. 3) that could react with cysteine were prepared. To be most useful, the electrophilic ligands should be stable in biological media so that they not react prematurely with common biological nucleophiles such as the cysteine on glutathione or in albumin (Geigy Scientific Tables Vol 3, C. Lentner, ed., Ciba-Geigy Ltd., Basel, Switz (1984)). The whole-body clearance of the radiolabeled chelates from mice was studied (FIG. 4 and Chmura, A. J., et al., J. Controlled Release 78:249-258 (2002)) to identify the electrophilic chelates that are unreactive in plasma in vitro, and which also quantitatively clear from live animals.

[4] = test system: S95C Fab; assay: Competition assay: blocking covalent attachment of 111In-AABE; format: binding; details: excess nonradioactive ABE-metal chelate
From the text: (a) Competition ELISA curves. Different metal-ABE chelates compete with an immobilized indium chelate for binding Fab S95C. (b) Competitive binding of a series of metal-ABE chelates, measured by blocking the covalent attachment of ^111In-AABE to Fab S95C. SDSPAGE gel bands show increased labeling of the light chain with decreasing competition.
To further confirm that S95C Fab retained the ligand-binding specificity, we performed a competition assay to see whether nonradioactive ABE-indium, -iron, -cadmium, -scandium, or -gallium could block the covalent attachment of ^111In-AABE.

[5] = test system: antibody 2D12.5; assay: Competitive immunoassay (ELISA) of metal chelate binding; parameters: species or system mouse; details: reversible binding to parental 2D12.5
From the text: FIG. 9 Relative binding of metal-(S)NBD complexes to antibody 2D12.5. A representative set of competitive binding curves obtained from ELISA experiments. Distance between midpoints is related to difference between dissociation constants. Error bars (representing the standard error of the mean) are shown but are generally smaller than the data points.
FIG. 14 Binding of yttrium chelates with different stereochemistry to antibody 2D12.5, showing that the antibody binds a chelate with the side chain in the R configuration approximately one order of magnitude less well than the S configuration. […] Error bars are smaller than the data symbols. Data were generated by competitive ELISA.
A competitive immunoassay to measure the binding constants of various metal-(S)NBD complexes relative to the original Y^3+ complex (FIG. 9) was developed to assess the metal selectivity of antibody 2D12.5. Briefly, 2D12.5 was incubated at 37° C. in the presence of immobilized HSA-21T-Y-(S)BAD and a soluble metal-(S)NBD competitor (Y-(S)BAD was linked to human serum albumin via 2-iminothiolane). The metal-(S)NBD concentration was varied from μM to pM in order to determine the relative binding affinity of 2D12.5 for each metal chelate in comparison to Y-(S)NBD. […] Other antibodies that bind metal chelates do so with a strong preference for one or possibly two metals (Love, R. et al., Biochemistry 32, 10950-10959 (1993), and Khosraviani, M., et al., (2000) Bioconjugate Chem., 11, 267-277). For example, the (S)NBD chelate of group IIIB ion Sc(III) binds to the antibody with a much lower affinity (<1%) than the strongest binding rare earth complexes, perhaps because Sc(III) has a much smaller ionic radius (Meehan, P. R., et al., Coord. Chem. Rev., 181, 121145, and Shannon, R. D. (1976) Acta Crystallogr., Sect. A: Found. Crystallogr., A32, 751-767).

[6] = test system: G54C mutant of 2D12.5; assay: Permanent binding to G54C, competitive 90Y-AABD attachment, SDS-PAGE; details: 37° C.
Protocol: FIG. 17 a) Scheme describing the permanent binding pair. b) Infinite binding is observed not only for ^90Y-AABD but also for ^111In-AABD, assayed by SDS-PAGE under denaturing conditions where only permanently bound complexes remain attached to the antibody.
FIG. 18 The G54C mutant was preincubated in triplicate with 10 μM AABD complexes of Y^3+, In^3+ or Cu^2+, a negative control N-(1-carbamoyl-2-(4-nitrophenyl)-ethyl)-acrylamide or N-(4-carboxymethylphenyl)-acrylamide, or just buffer, for 5 min, 20 min or 120 min at 37° C., pH 7.5. At the stated times ^90Y-AABD (1 μM) was added to each solution to compete for free G54C. Permanent binding was assayed by measuring band intensities after SDS-PAGE. a) Phosphorimage of gel. The fainter the bands, the greater the permanent binding by the unlabeled ligand. b) Crystal structures of Y-DOTA, In-DOTA-mono(p aminoanilide) (some atoms removed for clarity) and Cu-DOTA.
FIG. 19 a) Metal-AABD (10 μM) complexes were preincubated separately with aliquots of G54C for 5 min, followed by addition of 1 μM ^90Y-AABD, which competes for free G54C, and SDS-PAGE analysis. b) From quantitative phosphorimaging, the highest-affinity AABD complexes form permanent bonds with G54C with higher yields than more 3+weakly binding rare earth-AABD complexes whose ionic radii are slightly smaller (Lu Yb^3+) or larger (Ce^3+, La^3+) than ideal.
We were curious to see if an even weaker binder such as a copper chelate (KD˜10^−4 M for Cu-NBD) would bind irreversibly under ordinary conditions. We tested this by comparing the permanent binding of Y^3+-, In^3+-, and Cu^2+-AABD, using competitive ^90Y-AABD attachment as an indicator (FIG. 18). […] Weaker binding In-AABD blocks >50% of the sites after 5 min preincubation, and even more at later times. Very weakly binding Cu-AABD initially occupies only about 10% of the G54C sites under these conditions, but it has permanently attached to G54C in good yield after 2 hr, blocking>70% of the sites.

[7] = test system: G54C Fab; assay: Kinetics of permanent bond formation with G54C Fab; format: binding
Protocol: FIG. 21 Kinetics of permanent bond formation between G54C Fab (1 μM) and 10 μM ^90Y-labeled YAABD. The addition of a high concentration of Y-NBD, a reversibly binding competitor, after 6 min competitively blocks the re-binding of any Y-AABD that dissociates without forming a permanent bond. The experiment containing no competitor, on the other hand, allows any Y-AABD molecules initially bound in an unproductive mode to rebind in an orientation favorable for permanent covalent bond formation until a maximum is reached.
The question to be addressed was the probability that Y-AABD reacts with G54C the first time it forms a complex, instead of dissociating and rebinding. In the first experiment ^90Y-labeled Y-AABD (10 μM) was added to G54C Fab (1 μM) at 37° C., pH 7.5. Samples were withdrawn at various times and were immediately added to SAB, boiled and reduced under denaturing conditions to halt any further permanent bond formation. Samples were analyzed by SDS-PAGE, and the extent of permanent bond formation was determined by measuring the relative radioactivity of bands.
In a second experiment, performed in parallel, conditions were identical to the first except that the reversible competitor Y-NBD was added in vast excess (1 mM) relative to Y-AABD after 6 min, allowing labeled Y-AABD complexes to form bonds or dissociate, but competitively blocking any re-binding of Y-AABD to G54C.

Structure (SMILES)	time to 50% complete covalent attachment [1]	covalent attachment to Fab S95C light chain ([2]; listed as 111In-AABE)	covalent attachment to Fab S95C light chain ([2]; listed as AABE-^111In)	whole-body clearance [3]	apparent half-life, whole-body clearance [3]	covalent attachment to Fab S95C light chain [2]	blocking of covalent attachment of 111In-AABE [4]	Kd [5]	G54C sites blocked from 90Y-AABD ([6]; 10 μM complex, preincubation 5 min, pH 7.5)	permanent binding to G54C ([6]; pH 7.5, SDS-PAGE, listed as 90Y-AABD)	fraction of molecules reacting upon initial complex formation [7]
C=CC(=O)Nc1ccc(C[C@@H](CN(CC(=O)O)CC(=O)O)N(CC(=O)O)CC(=O)O)cc1 [AABE, (S)-1-[p-(acrylamido)benzyl]-EDTA]	approximately 10 min	reacted equally well	reacted with the S95C mutant of CHA255 to permanently tag the light chain	showed the required clearance properties; also recorded: clears as completely—and almost as rapidly—as ABE	about 4 h	–	–	–	–	–	–
Nc1ccc(C[C@@H](CN(CC(=O)O)CC(=O)O)N(CC(=O)O)CC(=O)O)cc1 [ABE, (S)-1-[p-(amino)benzyl]-EDTA, reference compound]	–	–	–	–	about 4 h	not	effectively blocks the reaction	–	–	–	–
C=CC(=O)Nc1ccc(C[C@H]2CN(CC(=O)O)CCN(CC(=O)O)CCN(CC(=O)O)CCN2CC(=O)O)cc1 [Y-AABD, (S)-2-(4-acrylamidobenzyl)-DOTA]	–	–	–	–	–	–	–	4 nM	> 90%	permanently and specifically attaches	about half
